“Also recorded” adds a separate entry of the source. Where two headings read alike, the source gives them in different places. Ends that are not written are not given here.
Tests used:
εPKC [1] = test: εPKC translocation from the soluble to the particulate fraction in CHO cells (immunoblot); format: cell-based; conditions: for εPKC translocation in cells: 500 nM peptide for 15 minutes before sub-maximal 3 nM PMA, relative to control
Method: Upon activation, PKC translocates from the soluble to the particulate cell fraction, which translocation can be monitored by immunoblot analysis (26). It was previously determined that the effect of peptides on PKC translocation is better observed when the cells are treated with a sub-maximal concentration of PMA (22,42). Larger concentrations of PMA, a non-physiological activator, stimulate a greater degree of PKC translocation over translocation stimulated by peptide activators alone (51).
A representative activator (peptide 2) or inhibitor (peptide 7) were preincubated at 500 nM for 15 minutes with cells before sub-optimal stimulation with 3 nM PMA for 7 minutes.
PKC Translocation in Cells—εPKC translocation from the soluble to the particulate fraction in CHO cells was used to assess the relative amount of activated (membrane-bound) εPKC, an assay that has been described previously (42). Evidence of translocation is either by an increase in the amount of PKC in the particulate fraction or by a decrease in the soluble fraction. Briefly, after stimulation, cells were washed with cold PBS, scraped in homogenization buffer, passed through a (25G⅝″) syringe needle, and spun at 100,000 g for 30 min at 4° C. The pellet was then resuspended in homogenization buffer with 1% Triton X-100. Where applicable, the cells were pre-incubated with 500 nM peptide for 15 minutes prior to stimulation. PKC was stimulated with sub-maximal levels of the general PKC activator phorbol 12-myristate 13-acetate (PMA, 3 nM). The samples were then analyzed by Western blot. Antibodies against εPKC were obtained from Santa Cruz Biotechnology (Santa Cruz, Calif.) and used at 1:500 dilution.

intact heart, ex vivo [2] = test: Ex vivo cardiac protection, ischemia and reperfusion in Langendorff-perfused hearts (TTC staining, CPK release); set-up: species or system Wistar rats
PKC [3] = test: MARCKS phosphorylation in primary skeletal muscle cells from εPKC knockout mice (Western blot); conditions: primary mouse muscle cells from εPKC knock-out mice; 1 μM peptide for 15 minutes
εPKC [4] = target: T1, εPKC (Mus musculus, UniProt P16054); test: In vivo PKC translocation in hearts after intraperitoneal injection (immunoblot); set-up: species or system mice; conditions: for translocation of εPKC in hearts in vivo: particulate fraction of mouse hearts, 15 minutes following IP injection of 20 nmol peptide, relative to control TAT peptide
T1 construct: from tissue; host or cells: mouse heart
T1 sequence (P16054 1-737): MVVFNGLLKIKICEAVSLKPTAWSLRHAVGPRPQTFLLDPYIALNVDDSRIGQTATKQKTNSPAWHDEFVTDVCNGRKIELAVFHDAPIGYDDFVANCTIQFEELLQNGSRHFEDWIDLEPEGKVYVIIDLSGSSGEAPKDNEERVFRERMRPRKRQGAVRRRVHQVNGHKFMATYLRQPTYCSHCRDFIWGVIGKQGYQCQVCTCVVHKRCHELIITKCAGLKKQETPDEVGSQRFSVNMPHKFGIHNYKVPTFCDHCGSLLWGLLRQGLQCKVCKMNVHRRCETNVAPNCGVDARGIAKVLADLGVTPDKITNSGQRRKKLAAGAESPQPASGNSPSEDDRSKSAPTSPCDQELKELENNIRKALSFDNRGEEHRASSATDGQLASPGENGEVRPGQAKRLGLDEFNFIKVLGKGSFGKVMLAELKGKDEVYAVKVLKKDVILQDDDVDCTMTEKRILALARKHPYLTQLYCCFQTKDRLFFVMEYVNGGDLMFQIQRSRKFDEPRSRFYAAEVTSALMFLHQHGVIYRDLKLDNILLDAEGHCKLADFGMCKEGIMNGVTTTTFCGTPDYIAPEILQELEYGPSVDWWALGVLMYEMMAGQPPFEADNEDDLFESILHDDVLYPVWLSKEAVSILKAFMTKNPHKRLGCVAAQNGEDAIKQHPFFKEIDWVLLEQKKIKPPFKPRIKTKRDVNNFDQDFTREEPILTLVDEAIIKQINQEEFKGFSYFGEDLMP
Method: (§1) In a further in vivo study, peptide activity and selectivity were examined using representative peptides injected into mice via intraperitoneal (IP) injection, and the amount of εPKC, δPKC, αPKC, and ζPKC translocation in hearts was determined. These four PKC isozymes represent each of the three major sub-families of PKC. In particular, εPKC and δPKC are members of the novel PKC family (calcium insensitive, diacylglycerol sensitive), αPKC is a classical PKC (calcium and diacylglycerol sensitive), and ζPKC is an atypical PKC (calcium and diacylglycerol insensitive).
(§2) Levels of εPKC, δPKC, αPKC, and ζPKC in the particulate fraction of mouse hearts were assayed by immunoblot 15 minutes following IP injection of 20 nmol each peptides (FIGS. 5A-5D). The accompanying graphs show quantitation based on two experiments, calculated as fold increase (+/−standard error) in the particulate fraction/total fraction, normalized to the actin loading control, and relative to the control TAT peptide. […] Since peptides 11 and 13 caused MARCKS phosphorylation in myocytes from the εPKC knockout mice (FIG. 3), it is concluded that they activated several PKC isozymes.
(§3) Isozyme Selectivity In Vivo—To determine that activator peptides causing MARCKS phosphorylation and decreasing ischemia-reperfusion damage in heart also induce εPKC translocation in vivo, we injected the respective peptides at 20 nmol in 200 μl saline into the peritoneum of 15-20 g mice, as previously reported (48). Fifteen minutes later, the mice were sacrificed and heart and brain were collected. Soluble and particulate fractions from mouse tissue were prepared as previously described (48). ε, ζ and δPKC translocation were determined by Western blot analysis using selective anti-PKC antibodies from Santa Cruz Biotechnology, Santa Cruz, Calif. and used at 1:500 dilution. Sarcomeric actin (1:1000, Sigma) was used as a loading control for all fractions.

intact heart, ex vivo [5] = conditions: pre-treatment, Langendorff apparatus; refs (4,43); cited from earlier work
PKC [6] = conditions: primary mouse muscle cells, wild-type; 1 μM peptide for 15 or 30 minutes prior to cell lysis
δPKC = target: T2, δPKC (Mus musculus, UniProt P28867); test: In vivo PKC translocation in hearts after intraperitoneal injection (immunoblot); set-up: species or system mice; conditions: particulate fraction of mouse hearts, 15 minutes following IP injection of 20 nmol peptide; relative to control TAT peptide
T2 construct: from tissue; host or cells: mouse heart
T2 sequence (P28867 whole entry): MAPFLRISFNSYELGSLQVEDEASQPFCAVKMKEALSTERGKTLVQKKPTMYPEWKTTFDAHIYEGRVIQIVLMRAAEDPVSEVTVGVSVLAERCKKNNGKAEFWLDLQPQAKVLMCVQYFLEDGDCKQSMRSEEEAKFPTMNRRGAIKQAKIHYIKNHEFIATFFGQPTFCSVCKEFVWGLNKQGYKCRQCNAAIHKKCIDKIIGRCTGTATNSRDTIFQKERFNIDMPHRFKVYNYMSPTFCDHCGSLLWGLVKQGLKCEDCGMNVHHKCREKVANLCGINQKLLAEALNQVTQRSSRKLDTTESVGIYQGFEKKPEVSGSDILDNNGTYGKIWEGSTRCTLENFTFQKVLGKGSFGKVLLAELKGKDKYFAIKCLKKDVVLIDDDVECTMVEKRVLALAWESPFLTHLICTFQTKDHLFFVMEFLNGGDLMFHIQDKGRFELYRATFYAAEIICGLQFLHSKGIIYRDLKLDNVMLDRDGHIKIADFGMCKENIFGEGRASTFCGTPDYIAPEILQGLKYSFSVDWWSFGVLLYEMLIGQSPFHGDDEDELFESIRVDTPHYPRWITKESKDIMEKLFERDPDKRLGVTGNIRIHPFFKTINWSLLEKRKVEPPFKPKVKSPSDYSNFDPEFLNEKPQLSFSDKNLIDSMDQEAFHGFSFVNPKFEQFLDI
Method: as §1, §2, §3

ηPKC = conditions: ηPKC-derived peptides; Ref. (1, 63); cited from earlier work
ηPKC, sequence (P24723 whole entry, the tested form may be a part): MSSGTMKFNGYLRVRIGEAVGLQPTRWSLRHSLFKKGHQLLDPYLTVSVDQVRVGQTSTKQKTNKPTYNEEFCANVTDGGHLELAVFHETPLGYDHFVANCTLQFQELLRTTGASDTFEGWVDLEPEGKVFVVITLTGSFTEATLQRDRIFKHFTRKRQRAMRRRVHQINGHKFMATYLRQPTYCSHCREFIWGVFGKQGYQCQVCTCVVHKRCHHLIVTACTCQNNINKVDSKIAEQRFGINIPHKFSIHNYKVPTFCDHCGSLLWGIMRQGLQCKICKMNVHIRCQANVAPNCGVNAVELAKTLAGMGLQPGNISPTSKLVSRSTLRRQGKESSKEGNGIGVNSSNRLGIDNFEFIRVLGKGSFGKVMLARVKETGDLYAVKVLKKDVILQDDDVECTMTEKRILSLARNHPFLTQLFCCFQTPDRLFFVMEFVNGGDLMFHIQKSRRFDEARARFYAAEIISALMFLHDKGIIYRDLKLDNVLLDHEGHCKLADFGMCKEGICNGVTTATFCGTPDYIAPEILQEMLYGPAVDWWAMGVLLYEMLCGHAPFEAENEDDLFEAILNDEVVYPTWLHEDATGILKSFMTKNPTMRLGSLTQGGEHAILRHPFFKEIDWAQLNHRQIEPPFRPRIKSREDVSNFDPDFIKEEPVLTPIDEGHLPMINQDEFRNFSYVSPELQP

[7] = 1 μM TAT-conjugated peptide 10 minutes prior to 40 minutes global ischemia, 60 minutes reperfusion (peptide 9: 30 minutes ischemia), † and ‡ = trend towards cardioprotective (n = 5, n = 3)

Row | Substance | εPKC translocation in cells (εPKC [1]) | MARCKS phosphorylation in εKO Cells (PKC [3]) | Cardioprotective ex vivo (intact heart, ex vivo [2]) | further results
1 | CAVGPRPQT (not fully specified (residue 1)) [Peptide 2] | activator | not in KO; also recorded: no effect |  | increase in the amount of εPKC translocation compared to pre-treatment with the TAT control peptide (εPKC [1]; 500 nM peptide 15 minutes, then 3 nM PMA 7 minutes, n=5, p<0.05): approximately 30%; Cardioprotective ex vivo (intact heart, ex vivo [2]; [7]): cardioprotective and yes
2 | CEAVSLKPT [εV1-2, reference compound] | decrease in the amount of εPKC in the pellet fraction; also recorded: inhibitor | no effect |  | Cardioprotective ex vivo (intact heart, ex vivo [2]; [7]): no
3 | CEFVTDV [Peptide 8] | activator | not conclusive | not cardioprotective and no | 
4 | CFLLDPY [Peptide 3] | activator | not in KO; also recorded: no effect | trend towards cardioprotection and yes‡ | 
5 | CFNGLLKIKI (not fully specified (residue 1)) [Peptide 1] | activator | not in KO; also recorded: no effect |  | Cardioprotective ex vivo (intact heart, ex vivo [2]; [7]): trend towards cardioprotection and yes†; translocation of εPKC in hearts in vivo (εPKC [4]): caused translocation of εPKC
6 | CHDAPIGYD [ψεRACK, reference compound] | activator | not in KO; also recorded: no effect |  | Cardioprotective ex vivo (intact heart, ex vivo [2]; [7]): cardioprotective and yes; translocation of εPKC in hearts in vivo (εPKC [4]): caused translocation of εPKC; damage (infarction) of hearts subjected to ischemia and reperfusion ex vivo (intact heart, ex vivo [5]): reduced damage
7 | CIELAVF [Peptide 10] | activator | not conclusive | no | MARCKS phosphorylation in WT Cells (PKC [6]): activator
8 | CLEPEGK [Peptide 12] | decrease in the amount of εPKC in the pellet fraction; also recorded: inhibitor |  |  | 
9 | CLSETKPAV (not fully specified; also: TAT47-57 conjugated) [scrambled εV1-2, reference compound] | stimulated εPKC translocation; also recorded: activator | no effect | not cardioprotective and no | translocation of δPKC in hearts in vivo (δPKC): did not cause an increase; PKC translocation, in vivo (εPKC [4]; mouse hearts, 15 minutes after IP injection of 20 nmol peptide, the cell words say which of ε, δ, α, ζPKC translocate): no; translocation of εPKC in hearts in vivo (εPKC [4]): did not cause an increase
10 | CNGRKI (not fully specified; also: TAT47-57 carrier linked via Cys disulfide) [Peptide 9] | activator | not in KO; also recorded: no effect | cardioprotective and yes | 
11 | CPAWHD [Peptide 7] | decrease in the amount of εPKC in the pellet fraction; also recorded: inhibitor |  | no | decrease in the amount of translocated εPKC compared to pre-treatment with the TAT control peptide (εPKC [1]; 500 nM peptide 15 minutes, then 3 nM PMA 7 minutes, n=3, p<0.01): approximately 50%
12 | CPDYHDAGI (not fully specified; also: TAT47-57 conjugated) [scrambled ψεRACK, reference compound] |  |  | not cardioprotective and no | MARCKS phosphorylation in WT Cells (PKC [6]): No change
13 | CPYIALNVD (not fully specified (residue 1)) [Peptide 4] | decrease in the amount of εPKC in the pellet fraction; also recorded: inhibitor |  |  | 
14 | CSRIGQ [Peptide 5] | activator | not in KO; also recorded: no effect | cardioprotective and yes | translocation of εPKC in hearts in vivo (εPKC [4]): caused translocation of εPKC
15 | CTATKQKT (not fully specified; also: TAT47-57 carrier linked via Cys disulfide) [Peptide 6] | activator | weak activator | cardioprotective and yes | MARCKS phosphorylation in WT Cells (PKC [6]): activator
16 | CVYVIIDL (not fully specified (residue 1)) [Peptide 13] | activator | increased MARCKS phosphorylation; also recorded: activator | not cardioprotective and no | 
17 | CYGRKKRRQRRR (TAT carrier peptide with N-terminal cysteine) [reference compound] | no effect | no effect |  | Cardioprotective ex vivo (intact heart, ex vivo [2]; [7]): no; Cardioprotective ex vivo (intact heart, ex vivo [2]; 1 μM TAT-conjugated peptide 10 minutes prior to 40 minutes global ischemia, 60 minutes reperfusion (peptide 9: 30 minutes ischemia), † and ‡ = trend towards cardioprotective (n = 5, n = 3), listed as TAT): not cardioprotective; MARCKS phosphorylation in WT Cells (PKC [6]): no effect
18 | EAVGLQPT (peptide derived from eta PKC) |  |  |  | Activity (known PKC-modulating activity) (ηPKC): inhibitor
19 | HETPLGYD (peptide derived from eta PKC) |  |  |  | Activity (known PKC-modulating activity) (ηPKC): activator
